Several values for one entry are separate records, joined by “and”; a condition that tells them apart may be missing. Identical values can stand only once. Like-named read-outs stand apart in the source and are kept apart here.

For test [1], the target named is human BCL6 BTB domain (Homo sapiens, UniProt P41182). Briefly: BCL6 TR-FRET assay. The class given is binding. The settings on record: for IC90: read-out: BCL6 TR-FRET IC90 Geometric Mean. As to the method: 1. Supplementary experimental: protein production, purification and crystallography 1.1 BCL6 constructs used for assays and crystallography […]
cleavage site. For the TR-FRET assay, the Trx-6His-HRV3C-BCL6 protein construct was used without cleaving the tag, as a 6His was needed to bind to the anti-6His-Terbium antibody. […]
For both plasmid constructs described above, transformed BL21-AI E. coli cells were grown in LB media […]
Expression was carried out at 18 °C for 18 hours. Cells were harvested by centrifugation (5500 g for 30 minutes at 4 °C) and stored at -80 °C.
Cells were re-suspended in a buffer composed of 20 mM Tris pH 8, 250 mM NaCl, 1 mM MgCl2, 0.5 mM […]
lysed by sonication followed by centrifugation at 21,000 g for 45 minutes at 4 °C. […]
ResourceQ and gel filtration using a HiLoad 26/60 Superdex75 column in a buffer containing 20 mM HEPES […]
The final protein was assessed for purity and molar mass by SDS-PAGE and high-resolution mass spectrometry, respectively.
For the uncleaved Trx-6His-HRV3C-BCL6 protein construct to be used in TR-FRET, the protein was directly eluted from the HisTrap FF column without HRV-3C treatment, and submitted to Superdex75 gel filtration […]
Test compounds in DMSO or DMSO alone […]
concentration in 0.7% v/v DMSO final. […]

Test [2] has as its target T1, BCL6-SMRT (NCOR2) corepressor protein-protein interaction (Homo sapiens, UniProt P41182).
T1 construct: DNA encoding full length BCL6 and SMRT; expressed in transfected cells; host or cells: HEK293T
Kind of test: NanoBRET cellular assay (HEK293T). It is filed as cell-based. The procedure:
Test compounds in DMSO or DMSO alone
concentration in 0.7% v/v DMSO final.
(also called NCOR2) corepressor protein-protein interaction. DNA encoding full length BCL6 and SMRT
fusion proteins BCL6-nanoLuc and SMRT-HaloTag, respectively. HEK293T cells were plated […] in T75
At the time of assay, compounds
dispensing (Labcyte Inc.). Frozen transfected HEK293T cells were thawed, centrifuged and freezing
DMSO final concentration.
After a short centrifugation the
(1st emission filter) / 450-80 nm (2nd emission filter). The % inhibition at each test concentration was
sigmoidal four-parameter logistic fit equation. […]
For orientation: Bioluminescence resonance energy transfer reports proximity on the nanometre scale.

[3] abbreviates: Table S1, read-out: BCL6 TR-FRET pIC50 mean (converted).
Setting [4] is: geometric mean of at least three replicates, read-out: BCL6 TR-FRET IC50.
[5] abbreviates: HEK-293T, Table S2, several values per compound, read-out: BCL6 NanoBRET IC90 Geometric Mean.
Where [6] appears, read: HEK-293T, Table S2, read-out: BCL6 NanoBRET IC90 individual replicates.
The mark [7] stands for this setting: HEK-293T, geometric mean of at least three replicates, read-out: NanoBRET IC90.
[8] abbreviates: Table S2, several values per compound, read-out: BCL6 NanoBRET IC90 Geometric Mean.
The mark [9] stands for this setting: geometric mean of at least three replicates, read-out: NanoBRET IC50.
The mark [10] stands for this setting: single replicates, Table S2, read-out: BCL6 NanoBRET IC50 individual replicates.
[11] abbreviates: supplement, read-out: BCL6 NanoBRET IC50 Geometric Mean.
[12] abbreviates: Table S2, read-out: BCL6 NanoBRET pIC50 mean (converted).
[13] abbreviates: supplement, read-out: BCL6 TR-FRET IC50 Geometric Mean.

Usually IC90 stands for the point of the concentration-response curve where the effect stands at 90%. On to `Cn1c(=O)c2c(c3cc(Nc4nc(N5C6CCC5COC6)ncc4Cl)ccc31)N[C@@H](C1CC1)C(F)(F)CO2` [compound 4, (S)-10-((2-(3-Oxa-8-azabicyclo[3.2.1]octan-8-yl)-5-chloropyrimidin-4-yl)amino)-2-cyclopropyl-3,3-difluoro-7-methyl-1,2,3,4-tetrahydro-[1,4]oxazepino[2,3-c]quinolin-6(7H)-one], for which the IC90 is 10.2 nM in test [1] (Table S1); 185 nM in test [2] (setting [5]); 142 nM in test [2] (setting [6]); 143 nM in test [2] (setting [7]); 101 nM and 154 nM in test [2] (setting [8]). The IC50 was 1.51 nM in test [1] (setting [3]); 1.4 nM in test [1] (setting [4]); 10.7 nM and 11 nM in test [2] (setting [9]); 12.3 nM and 8.2 nM and 12.1 nM in test [2] (setting [10]). Further, the calculated free (unbound) cellular IC90 in test [2] (HEK-293T, calculated free cellular IC90 from NanoBRET assay) is 42 nM. In addition, the “BCL6 NanoBRET pIC50 mean” value in test [2] (Table S2) is given as 7.9696.

Turning to `Cn1c(=O)c2c(c3cc(Nc4nc(N5CC6CCC(C5)O6)ncc4Cl)ccc31)N[C@@H](C1CC1)C(F)(F)CO2` [compound 5, (S)-10-((2-(8-Oxa-3-azabicyclo[3.2.1]octan-3-yl)-5-chloropyrimidin-4-yl)amino)-2-cyclopropyl-3,3-difluoro-7-methyl-1,2,3,4-tetrahydro-[1,4]oxazepino[2,3-c]quinolin-6(7H)-one], in test [1] (Table S1), the “BCL6 TR-FRET pIC50 mean” value was 8.527. For the same compound, the IC90 amounted to 19.9 nM in test [1] (Table S1) and 98.7 nM in test [2] (setting [6]). Further, the IC50 in test [1] (setting [4]) is 3 nM; in test [2] (setting [9]), 12.5 nM; in test [2] (setting [10]), 9.6 nM and 14.7 nM and 14 nM. Besides, the “BCL6 NanoBRET pIC50 mean” value in test [2] (Table S2) is on record as 7.9026.

For the compound `Cn1c(=O)c2c(c3cc(Nc4nc(N5C6COCC5CC(O)C6)ncc4Cl)ccc31)N[C@@H](C1CC1)C(F)(F)CO2` (stereo partly drawn) [compound 8, (S)-10-((5-Chloro-2-((1R,5S,7R)-7-hydroxy-3-oxa-9-azabicyclo[3.3.1]-nonan-9-yl)pyrimidin-4-yl)amino)-2-cyclopropyl-3,3-difluoro-7-methyl-1,2,3,4-tetrahydro-[1,4]oxazepino[2,3-c]quinolin-6(7H)-one], the IC90 in test [1] (Table S1) is 7.6 nM. Also, the IC50 is 1.31 nM in test [1] (setting [3]) and 1.3 nM in test [1] (setting [4]).

In the case of `Cn1c(=O)c2c(c3cc(Nc4nc(N5CCC5)ncc4Cl)ccc31)N[C@@H](C1CC1)C(F)(F)CO2` [compound 9, (S)-10-((2-(Azetidin-1-yl)-5-chloropyrimidin-4-yl)amino)-2-cyclopropyl-3,3-difluoro-7-methyl-1,2,3,4-tetrahydro-[1,4]oxazepino[2,3-c]quinolin-6(7H)-one], the “BCL6 TR-FRET pIC50 mean” value in test [1] (Table S1) came out at 8.2581. The figures for the IC90 in test [1] (Table S1) and in test [2] (setting [6]) were 45.4 nM and 1620 nM, respectively. The IC50 in test [1] (setting [4]) was 5.5 nM; in test [2] (setting [9]), 149 nM; in test [2] (setting [10]), 229 nM and 48.1 nM and 302 nM; in test [2] (setting [11]), 149 nM. The “BCL6 NanoBRET pIC50 mean” value in test [2] (Table S2) is recorded as 6.8258.

For `COC1CN(c2ncc(Cl)c(Nc3ccc4c(c3)c3c(c(=O)n4C)OCC(F)(F)[C@H](C4CC4)N3)n2)C1` [compound 10, (S)-10-((5-Chloro-2-(3-methoxyazetidin-1-yl)pyrimidin-4-yl)amino)-2-cyclopropyl-3,3-difluoro-7-methyl-1,2,3,4-tetrahydro-[1,4]oxazepino[2,3-c]quinolin-6(7H)-one], the figures for the IC90 in test [1] (Table S1) and in test [2] (setting [6]) were 34.1 nM and 386 nM, respectively. For the same compound, the IC50 in test [1] (setting [3]) was 3.93 nM; in test [1] (setting [4]), 3.7 nM; in test [2] (setting [12]), 43.6 nM; in test [2] (setting [9]) it was 38 nM; in test [2] (setting [10]) it was 26 nM and 57.5 nM and 55.3 nM.

For the compound `Cn1c(=O)c2c(c3cc(Nc4nc(N5CC(F)(F)C5)ncc4Cl)ccc31)N[C@@H](C1CC1)C(F)(F)CO2` [compound 11, (S)-10-((5-Chloro-2-(3,3-difluoroazetidin-1-yl)pyrimidin-4-yl)amino)-2-cyclopropyl-3,3-difluoro-7-methyl-1,2,3,4-tetrahydro-[1,4]oxazepino[2,3-c]quinolin-6(7H)-one], the IC90 in test [1] (Table S1) was 85.4 nM; in test [2] (setting [6]) it was 175 nM; in test [2] (setting [7]), 175 nM. Also, the IC50 in test [1] (setting [4]) was 10 nM; in test [1] (setting [13]), 10.3 nM; in test [2] (setting [9]), 31 nM; in test [2] (setting [10]), 61.1 nM and 18.2 nM and 26.8 nM. For the same compound, the “BCL6 NanoBRET pIC50 mean” value in test [2] (Table S2) came out at 7.5086.

For `Cn1c(=O)c2c(c3cc(Nc4nc(N5CC(C#N)C5)ncc4Cl)ccc31)N[C@@H](C1CC1)C(F)(F)CO2` [compound 12, (S)-1-(5-Chloro-4-((2-cyclopropyl-3,3-difluoro-7-methyl-6-oxo-1,2,3,4,6,7-hexahydro-[1,4]oxazepino[2,3-c]quinolin-10-yl)amino)pyrimidin-2-yl)azetidine-3-carbonitrile], the “BCL6 TR-FRET pIC50 mean” value in test [1] (Table S1) is reported as 8.3025. In addition, the IC90 in test [1] (Table S1) was 46.6 nM; in test [2] (setting [5]), 532 nM; in test [2] (setting [6]) it was 385 nM; in test [2] (setting [8]), 398 nM and 270 nM. Besides, the IC50 in test [1] (setting [4]) is 5 nM; in test [2] (setting [9]), 55 nM; in test [2] (setting [10]), 73.6 nM and 63.9 nM and 34.7 nM; in test [2] (setting [11]), 54.7 nM. Moreover, the “BCL6 NanoBRET pIC50 mean” value in test [2] (Table S2) was 7.2623.

In the case of `Cn1c(=O)c2c(c3cc(Nc4nc(N5CC(F)C5)ncc4Cl)ccc31)N[C@@H](C1CC1)C(F)(F)CO2` [compound 13, (S)-10-((5-Chloro-2-(3-fluoroazetidin-1-yl)pyrimidin-4-yl)amino)-2-cyclopropyl-3,3-difluoro-7-methyl-1,2,3,4-tetrahydro-[1,4]oxazepino[2,3-c]quinolin-6(7H)-one], the IC90 is 50.2 nM in test [1] (Table S1) and 444 nM in test [2] (setting [6]). Moreover, the IC50 in test [1] (setting [3]) was 6.2 nM; in test [1] (setting [4]), 5.7 nM; in test [2] (setting [12]), 52 nM; in test [2] (setting [9]), 40 nM; in test [2] (setting [10]), 56.7 nM and 28.4 nM and 87.3 nM.

Take `Cn1c(=O)c2c(c3cc(Nc4ccnc(Cl)c4C#N)ccc31)N[C@@H](C1CC1)C(F)(F)CO2` [compound 14]: the IC90 in test [1] (Table S1) was 30.1 nM; in test [2] (setting [6]) it was 124 nM. For the same compound, the IC50 in test [1] (setting [3]) was 3.95 nM; in test [1] (setting [4]) it was 4.8 nM; in test [2] (setting [10]), 14.7 nM and 10.4 nM (2×); in test [2] (setting [11]) it was 11.7 nM. Moreover, the “BCL6 NanoBRET pIC50 mean” value in test [2] (Table S2) is listed as 7.9327.

Consider `Cc1nccc(Nc2ccc3c(c2)c2c(c(=O)n3C)OCC(F)(F)[C@H](C3CC3)N2)c1Cl` [compound 16, (S)-10-((3-chloro-2-methylpyridin-4-yl)amino)-2-cyclopropyl-3,3-difluoro-7-methyl-1,2,3,4-tetrahydro-[1,4]oxazepino[2,3-c]quinolin-6(7H)-one], for which the “BCL6 TR-FRET pIC50 mean” value in test [1] (Table S1) is 7.7332. Further, the IC90 in test [1] (Table S1) amounted to 158 nM; in test [2] (setting [5]) it was 639 nM; in test [2] (setting [6]) it was 639 nM. For the same compound, the IC50 was 18.5 nM in test [1] (setting [4]), 129 nM in test [2] (setting [10]) and 129 nM in test [2] (setting [11]). For the same compound, the “BCL6 NanoBRET pIC50 mean” value in test [2] (Table S2) stood at 6.8907.

In the case of `Cn1c(=O)c2c(c3cc(Nc4ccnc(Cl)c4F)ccc31)N[C@@H](C1CC1)C(F)(F)CO2` [compound 18, (S)-10-((2-chloro-3-fluoropyridin-4-yl)amino)-2-cyclopropyl-3,3-difluoro-7-methyl-1,2,3,4-tetrahydro-[1,4]oxazepino[2,3-c]quinolin-6(7H)-one], in test [1] (Table S1), the “BCL6 TR-FRET pIC50 mean” value turned out to be 7.6837. Further, the IC90 in test [1] (Table S1) was 201 nM; in test [2] (setting [5]), 625 nM; in test [2] (setting [6]), 616 nM; in test [2] (setting [8]), 511 nM and 732 nM. The IC50 in test [1] (setting [4]) was 21 nM; in test [1] (setting [13]) it was 20.7 nM; in test [2] (setting [9]), 108 nM; in test [2] (setting [10]) it was 99.9 nM and 125 nM and 99.5 nM; in test [2] (setting [11]), 108 nM. For the same compound, in test [2] (Table S2), the “BCL6 NanoBRET pIC50 mean” value worked out at 6.9685.

The values are drawn from publication PMC10150366, “Discovery of an In Vivo Chemical Probe for BCL6 Inhibition by Optimization of Tricyclic Quinolinones” (Journal of Medicinal Chemistry, 2023).
